# Measured values reported in patent publication US6632621B1, “G protein-coupled receptor-like receptors and modulators thereof” (priority 1999, dated 2003).
# Like-named read-outs stand apart in the source and are kept apart here. Where a SMILES comes first, the peptide text is derived from it. Where no end group is shown, it is not given here. [ ]: non-standard residue; d: D form. Tyr(3-I) = N[C@@H](Cc1ccc(O)c(I)c1)C(=O)O
# T1: CEGPCR3 receptor (Caenorhabditis elegans, UniProt P90745)
# T1 sequence (P90745 1-376): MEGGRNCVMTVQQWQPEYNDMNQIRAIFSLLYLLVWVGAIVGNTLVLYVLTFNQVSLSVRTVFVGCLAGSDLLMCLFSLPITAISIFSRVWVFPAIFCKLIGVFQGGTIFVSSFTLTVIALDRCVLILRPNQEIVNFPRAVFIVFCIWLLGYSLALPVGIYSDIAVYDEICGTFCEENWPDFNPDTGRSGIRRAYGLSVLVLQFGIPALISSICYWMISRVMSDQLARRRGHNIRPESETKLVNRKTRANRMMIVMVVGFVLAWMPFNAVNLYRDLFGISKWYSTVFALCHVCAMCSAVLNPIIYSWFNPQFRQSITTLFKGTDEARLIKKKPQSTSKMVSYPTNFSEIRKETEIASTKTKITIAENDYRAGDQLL
# T2: CEGPCR5 (Caenorhabditis elegans, UniProt Q18179)
# T2 sequence (Q18179 1-402): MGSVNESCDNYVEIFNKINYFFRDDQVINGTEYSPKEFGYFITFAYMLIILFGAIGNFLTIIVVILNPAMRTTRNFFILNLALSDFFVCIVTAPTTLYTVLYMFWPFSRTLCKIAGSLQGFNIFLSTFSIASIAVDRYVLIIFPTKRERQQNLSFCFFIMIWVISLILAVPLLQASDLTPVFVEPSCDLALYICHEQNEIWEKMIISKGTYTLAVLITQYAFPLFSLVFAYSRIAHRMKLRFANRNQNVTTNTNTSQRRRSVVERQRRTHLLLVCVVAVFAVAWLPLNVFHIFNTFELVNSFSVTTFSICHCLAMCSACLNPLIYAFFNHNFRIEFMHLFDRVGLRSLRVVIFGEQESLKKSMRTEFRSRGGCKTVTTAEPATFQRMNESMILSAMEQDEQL
# T3: CEGPCR7 receptor (Caenorhabditis elegans, UniProt Q18534)
# T3 construct: Each of the 22 putative GPCR-like receptor clones appeared to contain a full-length coding region; expressed in transfected cells; host or cells: CHO-K1, transient, pCR3.1 clone, 37 to 28 C temperature shift
# T3 sequence (Q18534 1-457): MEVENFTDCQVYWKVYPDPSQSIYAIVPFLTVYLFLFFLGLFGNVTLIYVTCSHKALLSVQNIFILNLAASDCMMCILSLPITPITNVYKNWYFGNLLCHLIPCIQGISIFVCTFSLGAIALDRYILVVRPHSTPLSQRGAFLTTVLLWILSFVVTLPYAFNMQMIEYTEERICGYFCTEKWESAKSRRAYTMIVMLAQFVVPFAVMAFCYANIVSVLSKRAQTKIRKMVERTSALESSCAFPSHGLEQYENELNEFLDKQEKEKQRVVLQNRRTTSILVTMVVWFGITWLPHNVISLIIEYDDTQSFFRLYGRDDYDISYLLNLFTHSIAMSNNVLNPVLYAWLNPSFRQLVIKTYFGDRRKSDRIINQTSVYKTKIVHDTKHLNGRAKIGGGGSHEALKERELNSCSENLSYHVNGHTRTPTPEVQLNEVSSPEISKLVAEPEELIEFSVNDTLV
# T4: CEGPCR12h receptor (Caenorhabditis elegans, UniProt Q20275)
# T4 sequence (Q20275 1-402): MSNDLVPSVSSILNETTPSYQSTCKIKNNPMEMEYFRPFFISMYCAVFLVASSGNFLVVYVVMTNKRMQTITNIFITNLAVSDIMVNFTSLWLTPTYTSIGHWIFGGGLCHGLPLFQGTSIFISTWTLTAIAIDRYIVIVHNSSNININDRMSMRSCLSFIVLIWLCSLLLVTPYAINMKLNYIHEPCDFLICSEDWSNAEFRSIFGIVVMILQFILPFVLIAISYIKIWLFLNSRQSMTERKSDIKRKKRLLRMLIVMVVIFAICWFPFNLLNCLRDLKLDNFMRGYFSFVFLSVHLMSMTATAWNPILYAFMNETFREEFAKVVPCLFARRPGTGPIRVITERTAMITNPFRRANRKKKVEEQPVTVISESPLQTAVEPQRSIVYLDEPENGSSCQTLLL
# T5: CEGPCR4 (C. elegans)
# T5 construct: Expressed in CHO cells; also called CEGPCR4 receptor; CEGPCR4/CHO membranes
# T5 chain: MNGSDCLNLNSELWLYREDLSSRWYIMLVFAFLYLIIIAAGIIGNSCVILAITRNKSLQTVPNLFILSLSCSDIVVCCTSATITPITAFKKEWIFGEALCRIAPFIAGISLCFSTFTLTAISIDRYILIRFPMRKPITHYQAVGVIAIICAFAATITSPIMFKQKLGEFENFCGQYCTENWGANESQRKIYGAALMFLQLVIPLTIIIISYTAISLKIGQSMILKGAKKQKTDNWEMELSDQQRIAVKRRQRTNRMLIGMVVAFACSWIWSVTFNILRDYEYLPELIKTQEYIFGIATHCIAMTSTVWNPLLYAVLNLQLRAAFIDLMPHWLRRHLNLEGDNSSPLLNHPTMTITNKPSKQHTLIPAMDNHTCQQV
# B1: NGAPQPFVRF-NH2 (peptide)
# peptide: NGAPQPFVRF-NH2
# notes: flp11 (species cell stands one row higher, r34c4)
# Assays:
# [1] = biological target: T1, CEGPCR3 receptor; experiment: [35S]GTPγS binding assay, membranes of CHO cells transiently transfected with CEGPCR3; assay type: biochemical, C. elegans
# Protocol: (§1) Recombinant pCR3.1 clones encoding invertebrate GPCR-like receptors were transformed into wild-type CHO-K1 cells and functional expression was achieved using a temperature-shift incubation protocol. The CHO-K1 cells were cultured at 37° C. in a humidified atmosphere of 5% CO2 in air in DMEM medium supplemented with 10% heat-inactivated fetal bovine serum (i.e., FBS), 10 μg/ml gentamicin, and 0.1 mM nonessential amino acids to give complete DMEM medium. Additionally, for incubations at temperatures lower than 37° C., the medium was fortified with 10 mM HEPES (pH 7.4). Cells were transfected with recombinant pCR3.1 clones containing GPCR-like receptor DNAs, using LipofectAMINE PLUS™, essentially according to the manufacturer's instructions. […] In separate plastic tubes, PLUS (20 μl/plate; Life Technologies) was added to 0.75 ml/plate of recombinant plasmid DNA in OptiMEM (5 μg/plate; Gibco/BRL—Life Technologies), mixed and incubated at room temperature for 15 minutes. Separately, LipofectAMINE (30 μl/plate) was mixed with 0.75 ml OptiMEM and added to the pre-complexed DNA/PLUS mixture and incubated at room temperature for 15 minutes. The culture medium was then replaced with serum-free transfection medium (DMEM, 5 ml/plate). The DNA-PLUS-LipofectAMINE complex was then added to the plates (1.5 ml/plate) and mixed gently into the medium, followed by a 3 hour incubation at 37° C. in 5% CO2. At this time, the medium was supplemented with complete DMEM medium containing 20% FBS (6.5 ml/plate) and incubation was continued at 37° C. in 5% CO2. After a total of 24 hours at 37° C. in 5% CO2, the medium was replaced with complete DMEM medium fortified with 10 mM HEPES (10 ml/plate) and the cells were moved to an incubator maintained at 28-30° C. in a humidified atmosphere of 5% CO2 in air. The incubation continued for an additional 24 hours, typically at the lower temperature indicated above. A plasmid encoding Green Fluorescent Protein (i.e., GFP, 4 μg/plate) was used for transient GFP expression in CHO-K1 cells to estimate the transfection yields under the same conditions as used for GPCR-like receptor polynucleotides.
# (§2) To assess expression, membranes were prepared from transfected CHO-K1 cells. Transfected cells were washed once with ice-cold Dulbecco's phosphate-buffered saline (i.e., PBS), 5 ml per 10 cm plate, and the cells were scraped into 5 ml of the same buffer. Cell suspensions from multiple plates were combined and centrifuged at 500×g for 10 minutes at 4° C. The cell pellet was reconstituted in ice-cold TEE (25 mM Tris, pH 7.4, 5 mM EGTA, 5 mM EDTA). Convenient aliquots were snap-frozen in liquid nitrogen and stored at −70° C. After thawing, the cells were homogenized and centrifuged at 500×g for 5 minutes at 4° C. to pellet nuclei and unbroken cells. Tile supernatant was centrifuged at 47,000×g for 30 minutes at 4° C. The membrane pellet was washed once with TEE, resuspended in 20 mM HEPES, pH 7.4, 100 mM NaCl, 10 mM MgCl2, 1 mM EDTA (assay buffer), distributed into aliquots of 0.5-1.0 ml, and frozen in liquid nitrogen. Membrane aliquots were stored at −70° C. Membrane protein concentration was determined using the BCA Protein Assay Reagent from Pierce (Rockford, Ill.), with bovine serum albumin (i.e., BSA) as a standard.
# (§3) Aliquots of cell membranes prepared as described above and stored at −70° C. were thawed, homogenized, and diluted into buffer containing 20 mM HEPES, pH 7.4, 10 mM MgCl2, 1 mM EDTA, and 100 mM NaCl at a concentration of 10-50 μg/ml. Reaction mixtures were prepared in 96-well polypropylene plate, Nunc. Twenty microliters of a 10× putative modulator compound (including but not limited to potential peptide ligands) solution or a water control (20 μl), 18.2 µM GDP (0.11 ml, 10 μM final concentration), and a membrane preparation were mixed and placed on ice. The modulator/ligand-GDP-membrane mixtures were incubated for 20 minutes at room temperature on a shaking platform and then placed on ice.
# [2] = biological target: T2, CEGPCR5; experiment: [35S]GTPγS binding assay, CEGPCR5 expressed in CHO cells; assay type: biochemical, C. elegans
# Protocol: as §1, §2, §3
# [3] = biological target: T3, CEGPCR7 receptor; experiment: [35S]GTPγS binding assay, membranes of CHO cells transfected with CEGPCR7; assay type: biochemical, C. elegans
# Protocol: as §1, §2
# Aliquots of cell membranes prepared as described above and stored at −70° C. were thawed, homogenized, and diluted into buffer containing 20 mM HEPES, pH 7.4, 10 mM MgCl2, 1 mM EDTA, and 100 mM NaCl at a concentration of 10-50 μg/ml.
# [4] = biological target: T4, CEGPCR12h receptor; experiment: [35S]GTPγS binding assay, CEGPCR12h expressed in CHO cells; assay type: biochemical, C. elegans; conditions: Table 11; one range for the group; results apply to all CEGPCR12 isoforms; read-out: EC50 range
# Protocol: as §1, §2, §3
# [5] = biological target: T5, CEGPCR4; experiment: competition binding assay, CEGPCR4/CHO membranes; IC50 range printed once for block r9-r18
# [6] = biological target: T5, CEGPCR4; experiment: competition binding assay, CEGPCR4/CHO membranes; IC50 range printed once for block r26-r35
# [7] = EC50, single values, GTPγS assay
# [8] = EC50 range, Table 7, one range for the group of peptides, cells 24 h 37° C. then 24 h 28° C.
molecule,measurement,setting,value
GPSGPLRF-NH2 [GPSGPLRF-NH2],EC50,[1]; [7],422 nM
same,EC50,[1]; [8],150 to 400 nM
CC(C)C[C@H](NC(=O)CNC(=O)[C@@H](N)Cc1ccc(O)c(I)c1)C(=O)NCC(=O)N1CCC[C@H]1C(=O)N[C@@H](CCCNC(=N)N)C(=O)N1CCC[C@H]1C(=O)N[C@@H](CC(C)C)C(=O)N[C@@H](CCCNC(=N)N)C(=O)N[C@@H](Cc1ccccc1)C(N)=O [[I]Y^0-GLGPRPLRF-NH2] (H-[Tyr(3-I)]GLGPRPLRF-NH2),EC50,[2]; EC50 range,176 to 273 nM
same,EC50,"[2]; EC50 range, Table 9, one range for the group of peptides",80 to 800 nM
same,less potent than AF9,[2]; ratio of potency,about 200 fold
same,EC50,"[3]; EC50, single values",237 nM
same,EC50,"[3]; EC50 range, Table 7, one range for the group of peptides",200 to 250 nM
GNSFLRF-NH2 [GNSFLRF-NH2],EC50,[2],80 to 800 nM
same,EC50,[1]; [7],7900 nM
same,EC50,"[1]; EC50 range, Table 7, cells 24 h 37° C. then 24 h 28° C.",~8000 nM
same,receptor activation by matched ligand,[1]; membranes from cells transfected and maintained at 37° C.,not detectably activated
same,potency lower than that of the two C. elegans flp15 peptides,[1]; ratio of EC50 values,19-52 fold
same,ligand-induced [35S]GTPγS binding,[1]; temperature shift to 28° C. 24 hours after transfection,significant stimulation
GGPQGPLRF-NH2 [GGPQGPLRF-NH2],EC50,[4],1500 to 3000 nM
same,EC50,[1]; [7],152 nM
same,EC50,[1]; [8],150 to 400 nM
EIPGVLRF-NH2 (flp18) [EIPGVLRF-NH2],binding result,[5],binds
SPLGTMRF-NH2 (flp3) [SPLGTMRF-NH2],binding result,[6],binds
B1,binding result,[6],binds
SDNFMRF-NH2 [SDNFMRF-NH2],binding result,[6],binds
PDNFMRF-NH2 [PDNFMRF-NH2],binding result,[6],binds
DFDGAMPGVLRF-NH2 (flp18) [DFDGAMPGVLRF-NH2],binding result,[5],binds
EIVFHQISPIFFRF-NH2 (flp14 as printed) [EIVFHQISPIFFRF-NH2],binding result,[6],binds
TNRNFLRF-NH2 [TNRNFLRF-NH2 (Lobster peptide II)],binding result,[6],binds
GGPQGPLRF-NH2 (flp15) [GGPQGPLRF-NH2],binding result,[6],binds
SVPGVLRF-NH2 (flp18) [SVPGVLRF-NH2],binding result,[5],binds
ASPSFIRF-NH2 (flp4) [ASPSFIRF-NH2],binding result,[5],binds
"SAEPFGTMRF-NH2 (not fully specified; printed as SAEPFGTMRF-NH2, flp3) [SAEPFGTMRF-NH2]",binding result,[6],binds
KSVPGVLRF-NH2 (flp18) [KSVPGVLRF-NH2],binding result,[5],binds
SEVPGVLRF-NH2 (flp18) [SEVPGVLRF-NH2],binding result,[5],binds
